Measurements taken from PubChem BioAssay (NCI).
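Growth conditions: 96-well plates. Treatment: test compound, 48 hours, 5 concentrations. Analysis: linear interpolation between bracketing concentrations; unreached endpoints set to highest concentration. TGI marks complete inhibition of growth.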

Key:
Test in all cases: DTP human tumour cell line panel, 48 h
[1] = system: RPMI-8226 leukemia
[2] = system: LOX IMVI melanoma
[3] = system: NCI-H522 lung
[4] = system: HOP-18 NSCLC
[5] = system: LXFL 529 NSCLC
[6] = system: SF-295 CNS
[7] = system: KM12 colon
[8] = system: NCI-H460 lung
[9] = system: OVCAR-8 ovarian
[10] = system: SK-MEL-2 melanoma
[11] = system: COLO 205 colon
[12] = system: A549 NSCLC
[13] = system: UACC-62 melanoma
[14] = system: SK-MEL-28 melanoma
[15] = system: DMS 273 small cell lung
[16] = system: DMS 114 small cell lung
[17] = system: KM20L2 colon
[18] = system: DLD-1 colon
[19] = system: IGROV1 ovarian
[20] = system: SF-268 CNS
[21] = system: NCI-H226 lung
[22] = system: TK-10 renal
[23] = system: RXF 393 renal
[24] = system: SF-539 CNS
[25] = system: CCRF-CEM leukemia
[26] = system: K-562 leukemia
[27] = system: CAKI-1 renal
[28] = system: SNB-19 CNS
[29] = system: M19-MEL melanoma
[30] = system: HCT-116 colon
[31] = system: EKVX NSCLC
[32] = system: HOP-92 NSCLC
[33] = system: HCT-15 colon
[34] = system: SNB-78 CNS
[35] = system: M14 melanoma
[36] = system: UACC-257 melanoma
[37] = system: SNB-75 CNS
[38] = system: NCI-H23 lung
[39] = system: MALME-3M melanoma
[40] = system: SR leukemia
[41] = system: MOLT-4 leukemia
[42] = system: SK-OV-3 ovarian
[43] = system: HOP-62 NSCLC
[44] = system: ACHN renal
[45] = system: SK-MEL-5 melanoma
[46] = system: OVCAR-5 ovarian
[47] = system: HT29 colon
[48] = system: HL-60(TB) leukemia
[49] = system: 786-0 renal
[50] = system: U251 CNS
[51] = system: OVCAR-3 ovarian
[52] = system: SN12C renal
[53] = system: SW-620 colon
[54] = system: HCC-2998 colon
[55] = system: OVCAR-4 ovarian
[56] = system: UO-31 renal
[57] = system: A498 renal

N/N=C(\CCN1CCCC1)CC(c1ccccc1)c1c(O)c2ccccc2oc1=O (configuration not stated)
TGI [1]: > 100 µM | TGI [2]: > 100 µM | TGI [3]: > 100 µM | TGI [4]: > 100 µM | TGI [5]: > 100 µM | TGI [6]: > 100 µM | TGI [7]: > 100 µM | TGI [8]: > 100 µM | TGI [9]: > 100 µM | TGI [10]: > 100 µM | TGI [11]: > 100 µM | TGI [12]: > 100 µM | TGI [13]: > 100 µM | TGI [14]: > 100 µM | TGI [15]: > 100 µM | TGI [16]: > 100 µM | TGI [17]: > 100 µM | TGI [18]: > 100 µM | TGI [19]: > 100 µM | TGI [20]: > 100 µM | TGI [21]: > 100 µM | TGI [22]: > 100 µM | TGI [23]: > 100 µM | TGI [24]: > 100 µM | TGI [25]: > 100 µM | TGI [26]: > 100 µM | TGI [27]: > 100 µM | TGI [28]: > 100 µM | TGI [29]: > 100 µM | TGI [30]: > 100 µM | TGI [31]: > 100 µM | TGI [32]: > 100 µM | TGI [33]: > 100 µM | TGI [34]: > 100 µM | TGI [35]: > 100 µM | TGI [36]: > 100 µM | TGI [37]: > 100 µM | TGI [38]: > 100 µM | TGI [39]: > 100 µM | TGI [40]: > 100 µM | TGI [41]: > 100 µM | TGI [42]: > 100 µM | TGI [43]: > 100 µM | TGI [44]: > 100 µM | TGI [45]: > 100 µM | TGI [46]: > 100 µM | TGI [47]: > 100 µM | TGI [48]: > 100 µM | TGI [49]: > 100 µM | TGI [50]: > 100 µM | TGI [51]: > 100 µM | TGI [52]: > 100 µM | TGI [53]: > 100 µM | TGI [54]: > 100 µM | TGI [55]: > 100 µM

COc1cc2c(cc1O)[C@@]1(Cc3ccc(OC)c(OC)c3)CCC(=O)N1CC2
TGI [1]: > 100 µM | TGI [2]: > 100 µM | TGI [4]: > 100 µM | TGI [5]: > 100 µM | TGI [6]: > 100 µM | TGI [7]: > 100 µM | TGI [8]: > 100 µM | TGI [9]: > 100 µM | TGI [11]: > 100 µM | TGI [12]: > 100 µM | TGI [13]: > 100 µM | TGI [14]: > 100 µM | TGI [15]: > 100 µM | TGI [16]: > 100 µM | TGI [17]: > 100 µM | TGI [18]: > 100 µM | TGI [19]: > 100 µM | TGI [20]: > 100 µM | TGI [21]: > 100 µM | TGI [22]: > 100 µM | TGI [23]: > 100 µM | TGI [24]: > 100 µM | TGI [25]: > 100 µM | TGI [26]: > 100 µM | TGI [27]: > 100 µM | TGI [28]: > 100 µM | TGI [29]: > 100 µM | TGI [30]: > 100 µM | TGI [31]: > 100 µM | TGI [32]: 92.4 µM | TGI [33]: > 100 µM | TGI [34]: > 100 µM | TGI [35]: > 100 µM | TGI [36]: > 100 µM | TGI [37]: > 100 µM | TGI [38]: > 100 µM | TGI [39]: > 100 µM | TGI [40]: > 100 µM | TGI [41]: > 100 µM | TGI [43]: > 100 µM | TGI [44]: > 100 µM | TGI [45]: > 100 µM | TGI [46]: > 100 µM | TGI [47]: > 100 µM | TGI [48]: > 100 µM | TGI [56]: > 100 µM | TGI [49]: > 100 µM | TGI [51]: > 100 µM | TGI [57]: > 100 µM | TGI [52]: > 100 µM | TGI [54]: > 100 µM | TGI [55]: > 100 µM
